Source: patent US8952024B2, “Herbicidal pyrimidone derivatives” (E I du Pont de Nemours and Company, priority 2009, dated 2015)

Assays:
Test in all cases: Test C plant response
Assay type in all cases: in vivo
[1] = tested on: wild mustard (Sinapis arvensis); conditions: Postemergence, scale 0 to 100
Excerpt: (§1) Seeds of plant species selected from bluegrass (annual bluegrass, Poa annua), blackgrass (Alopecurus myosuroides), canarygrass (Phalaris minor), chickweed (common chickweed, Stellaria media), galium (catchweed bedstraw, Galium aparine), bromegrass (downy bromegrass, Bromus tectorum), field poppy (Papaver rhoeas), field violet (Viola arvensis), green foxtail (Setaria viridis), deadnettle (henbit deadnettle, Lamium amplexicaule), Italian ryegrass (Lolium multiflorum), kochia (Kochia scoparia), lambsquarters (Chenopodium album), oilseed rape (Brassica napus), pigweed (Amaranthus retroflexus), Russian thistle (Salsola iberica), spring barley (Hordeum vulgare), spring wheat (Triticum aestivum), buckwheat (wild buckwheat, Polygonum convolvulus), wild mustard (Sinapis arvensis), wild oat (Avena fatua), wild radish (Raphanus raphanistrum), windgrass (Apera spica-venti), winter barley (Hordeum vulgare), and winter wheat (Triticum aestivum) were planted and treated postemergence with test chemicals formulated in a non-phytotoxic solvent mixture which included a surfactant. Plants ranged in height from 2 to 18 cm (1- to 4-leaf stage).
(§2) Treated plants and controls were maintained in a controlled growth environment for 14 days after which time all test plants were visually evaluated and compared to controls. Plant response ratings, summarized in Table C, are based on a scale of 0 to 100 where 0 is no effect and 100 is complete control. A dash (-) response means no test result.

[2] = tested on: bromegrass (downy bromegrass, Bromus tectorum); conditions: Postemergence, scale 0 to 100
Excerpt: as §1, §2

[3] = tested on: lambsquarters (Chenopodium album); conditions: Postemergence, scale 0 to 100
Excerpt: as §1, §2

[4] = tested on: pigweed (Amaranthus retroflexus); conditions: Postemergence, scale 0 to 100
Excerpt: as §1, §2

[5] = tested on: Italian ryegrass (Lolium multiflorum); conditions: Postemergence, scale 0 to 100
Excerpt: as §1, §2

[6] = tested on: blackgrass (Alopecurus myosuroides); conditions: Postemergence, scale 0 to 100
Excerpt: as §1, §2

[7] = tested on: Russian thistle (Salsola iberica); conditions: Postemergence, scale 0 to 100
Excerpt: as §1, §2

[8] = tested on: bluegrass (annual bluegrass, Poa annua); conditions: Postemergence, scale 0 to 100
Excerpt: as §1, §2

[9] = tested on: windgrass (Apera spica-venti); conditions: Postemergence, scale 0 to 100
Excerpt: as §1, §2

[10] = tested on: wild radish (Raphanus raphanistrum); conditions: Postemergence, scale 0 to 100
Excerpt: as §1, §2

[11] = tested on: spring barley (Hordeum vulgare); conditions: Postemergence, scale 0 to 100
Excerpt: as §1, §2

[12] = tested on: green foxtail (Setaria viridis); conditions: Postemergence, scale 0 to 100
Excerpt: as §1, §2

[13] = tested on: buckwheat (wild buckwheat, Polygonum convolvulus); conditions: Postemergence, scale 0 to 100
Excerpt: as §1, §2

[14] = tested on: spring wheat (Triticum aestivum); conditions: Postemergence, scale 0 to 100
Excerpt: as §1, §2

kochia (Kochia scoparia) = conditions: Postemergence, scale 0 to 100
Excerpt: as §1, §2

[15] = tested on: oilseed rape (Brassica napus); conditions: Postemergence, scale 0 to 100
Excerpt: as §1, §2

[16] = tested on: deadnettle (henbit deadnettle, Lamium amplexicaule); conditions: Postemergence, scale 0 to 100
Excerpt: as §1, §2

[17] = tested on: winter wheat (Triticum aestivum); conditions: Postemergence, scale 0 to 100
Excerpt: as §1, §2

wild oat (Avena fatua) = conditions: Postemergence, scale 0 to 100
Excerpt: as §1, §2

[18] = tested on: field violet (Viola arvensis); conditions: Postemergence, scale 0 to 100
Excerpt: as §1, §2

[19] = tested on: winter barley (Hordeum vulgare); conditions: Postemergence, scale 0 to 100
Excerpt: as §1, §2

[20] = tested on: galium (catchweed bedstraw, Galium aparine); conditions: Postemergence, scale 0 to 100
Excerpt: as §1, §2

[21] = tested on: Italian ryegrass (Lolium multiflorum); conditions: Preemergence, scale 0 to 100

O=C1CCCC(O)=C1C(=O)c1cnc(-c2ccccc2)n(-c2ccccc2)c1=O [Compound 2, 5-[(2-hydroxy-6-oxo-1-cyclohexen-1-yl)carbonyl]-2,3-diphenyl-4(3H)-pyrimidinone]
65: Plant response rating: Bluegrass ([8]; 125 g ai/ha) | Plant response rating: Radish, Wild ([10]; 16 g ai/ha) | Plant response rating: Foxtail, Green ([12]; 16 g ai/ha) | Plant response rating: Kochia (kochia (Kochia scoparia); 16 g ai/ha)
90: Plant response rating: Pigweed ([4]; 125 g ai/ha) | Plant response rating: Oilseed Rape ([15]; 125 g ai/ha)
98: Plant response rating: Mustard, Wild ([1]; 16 g ai/ha) | Plant response rating: Mustard, Wild ([1]; 31 g ai/ha) | Plant response rating: Mustard, Wild ([1]; 62 g ai/ha) | Plant response rating: Lambsquarters ([3]; 125 g ai/ha) | Plant response rating: Kochia (kochia (Kochia scoparia); 125 g ai/ha)
20: Plant response rating: Bromegrass, Downy ([2]; 31 g ai/ha) | Plant response rating: Blackgrass ([6]; 62 g ai/ha) | Plant response rating: Windgrass ([9]; 31 g ai/ha) | Plant response rating: Buckwheat, Wild ([13]; 31 g ai/ha)
25: Plant response rating: Bluegrass ([8]; 31 g ai/ha) | Plant response rating: Bluegrass ([8]; 62 g ai/ha) | Plant response rating: Windgrass ([9]; 62 g ai/ha) | Plant response rating: Oat, Wild (wild oat (Avena fatua); 62 g ai/ha) | Plant response rating: Oat, Wild (wild oat (Avena fatua); 125 g ai/ha)
35: Plant response rating: Pigweed ([4]; 16 g ai/ha) | Plant response rating: Russian Thistle ([7]; 16 g ai/ha)
0: Plant response rating: Ryegrass, Italian ([5]; 16 g ai/ha) | Plant response rating: Ryegrass, Italian ([5]; 31 g ai/ha) | Plant response rating: Blackgrass ([6]; 16 g ai/ha) | Plant response rating: Blackgrass ([6]; 31 g ai/ha) | Plant response rating: Bluegrass ([8]; 16 g ai/ha) | Plant response rating: Barley, Spring ([11]; 16 g ai/ha) | Plant response rating: Barley, Spring ([11]; 31 g ai/ha) | Plant response rating: Barley, Spring ([11]; 62 g ai/ha) | Plant response rating: Barley, Spring ([11]; 125 g ai/ha) | Plant response rating: Wheat, Spring ([14]; 16 g ai/ha) | Plant response rating: Wheat, Spring ([14]; 31 g ai/ha) | Plant response rating: Wheat, Spring ([14]; 62 g ai/ha) | Plant response rating: Wheat, Spring ([14]; 125 g ai/ha) | Plant response rating: Wheat, Winter ([17]; 16 g ai/ha) | Plant response rating: Wheat, Winter ([17]; 31 g ai/ha) | Plant response rating: Wheat, Winter ([17]; 62 g ai/ha) | Plant response rating: Oat, Wild (wild oat (Avena fatua); 16 g ai/ha) | Plant response rating: Field Violet ([18]; 16 g ai/ha) | Plant response rating: Barley, Winter ([19]; 16 g ai/ha) | Plant response rating: Barley, Winter ([19]; 31 g ai/ha) | Plant response rating: Ryegrass, Italian ([21]; 62 g ai/ha) | Plant response rating: Ryegrass, Italian ([21]; 125 g ai/ha) | Plant response rating: Ryegrass, Italian ([21]; 16 g ai/ha) | Plant response rating: Ryegrass, Italian ([21]; 31 g ai/ha)
10: Plant response rating: Bromegrass, Downy ([2]; 16 g ai/ha) | Plant response rating: Barley, Winter ([19]; 62 g ai/ha)
95: Plant response rating: Russian Thistle ([7]; 125 g ai/ha) | Plant response rating: Radish, Wild ([10]; 62 g ai/ha) | Plant response rating: Radish, Wild ([10]; 125 g ai/ha) | Plant response rating: Foxtail, Green ([12]; 62 g ai/ha) | Plant response rating: Foxtail, Green ([12]; 125 g ai/ha) | Plant response rating: Deadnettle ([16]; 16 g ai/ha) | Plant response rating: Deadnettle ([16]; 31 g ai/ha)
70: Plant response rating: Lambsquarters ([3]; 16 g ai/ha) | Plant response rating: Russian Thistle ([7]; 62 g ai/ha) | Plant response rating: Buckwheat, Wild ([13]; 125 g ai/ha) | Plant response rating: Kochia (kochia (Kochia scoparia); 31 g ai/ha) | Plant response rating: Oilseed Rape ([15]; 62 g ai/ha) | Plant response rating: Galium ([20]; 125 g ai/ha)
30: Plant response rating: Bromegrass, Downy ([2]; 62 g ai/ha) | Plant response rating: Ryegrass, Italian ([5]; 125 g ai/ha) | Plant response rating: Blackgrass ([6]; 125 g ai/ha) | Plant response rating: Wheat, Winter ([17]; 125 g ai/ha) | Plant response rating: Barley, Winter ([19]; 125 g ai/ha) | Plant response rating: Galium ([20]; 31 g ai/ha)
40: Plant response rating: Pigweed ([4]; 31 g ai/ha) | Plant response rating: Windgrass ([9]; 125 g ai/ha) | Plant response rating: Buckwheat, Wild ([13]; 62 g ai/ha) | Plant response rating: Field Violet ([18]; 31 g ai/ha) | Plant response rating: Field Violet ([18]; 62 g ai/ha)
15: Plant response rating: Ryegrass, Italian ([5]; 62 g ai/ha) | Plant response rating: Buckwheat, Wild ([13]; 16 g ai/ha) | Plant response rating: Oat, Wild (wild oat (Avena fatua); 31 g ai/ha)
60: Plant response rating: Russian Thistle ([7]; 31 g ai/ha) | Plant response rating: Oilseed Rape ([15]; 16 g ai/ha) | Plant response rating: Oilseed Rape ([15]; 31 g ai/ha)
80: Plant response rating: Lambsquarters ([3]; 62 g ai/ha) | Plant response rating: Radish, Wild ([10]; 31 g ai/ha)
50: Plant response rating: Bromegrass, Downy ([2]; 125 g ai/ha) | Plant response rating: Field Violet ([18]; 125 g ai/ha) | Plant response rating: Galium ([20]; 62 g ai/ha)
100: Plant response rating: Deadnettle ([16]; 62 g ai/ha) | Plant response rating: Deadnettle ([16]; 125 g ai/ha)
75: Plant response rating: Lambsquarters ([3]; 31 g ai/ha) | Plant response rating: Pigweed ([4]; 62 g ai/ha) | Plant response rating: Foxtail, Green ([12]; 31 g ai/ha) | Plant response rating: Kochia (kochia (Kochia scoparia); 62 g ai/ha)
5: Plant response rating: Windgrass ([9]; 16 g ai/ha) | Plant response rating: Galium ([20]; 16 g ai/ha)
